The structures appear in SMILES notation. Read-outs that look alike come from different tables or passages of the source. Bounds are passed on as bounds.

This note sets out measurements from patent US10738074B2, “Cyclic di-nucleotide compounds as STING agonists” (Merck Sharp & Dohme Corp., priority 2015, dated 2020).

One assay deals with THP1 cells. In words: IFN-β secretion in THP1 cell culture (5 h). Format: cell-based, human. The settings on record: Homo sapiens, THP-1, 5 h. The protocol: The ability of compounds to stimulate the secretion of interferon-beta from THP1 cells was measured using a human IFN-β AlphaLISA kit (Perkin Elmer, Cat. No. AL265F). The basic protocol is as follows:
A Labcyte Echo 550 acoustic dispenser was used to transfer 120 nL of compound dissolved in DMSO into the wells of an empty, sterile 384-well microplate, (Corning, Cat. No. 3712). THP1 cells (American Type Culture Collection, Cat. No. TIB202) previously frozen in Recovery Medium (Life Technologies, Cat. No. 12648-010) were thawed and immediately diluted 10-fold into 37° C. assay medium (RPMI 1640+L-Glutamine & phenol red, Life Technologies, Cat. No. 11875-085; 0.5% heat inactivated fetal bovine serum, Sigma Aldrich, Cat. No. F4135; 1 mM Sodium Pyruvate, Life Technologies, Cat. No. 11360-070; lx non-essential amino acids; Life Technologies, Cat. No. 11140-050). The cell viability and count was ascertained using a Beckman Coulter V-Cell XR cell counter. The cells suspension was centrifuged at 200×g for 5 min at RT. Cells were resuspended to a density of 0.8×10^6/mL in 37° C. assay medium. Subsequent liquid transfers were performed using either a Matrix electronic multichannel pipette or an Agilent Bravo Automated Liquid Handling Platform.
The assay was started by dispensing 40 μL of the previously prepared cell suspension into the wells of the plate containing compounds. After 5 h incubation at 37° C., 5% CO2 in a humidified atmosphere, the plate of cells and compounds was centrifuged at 200×g for 5 min at RT. From each well, 5 μL of supernatant was transferred into corresponding wells of a white 384-well plate (Perkin Elmer, Cat. No. 6005620). To these supernatant-containing wells was added 10 μL of 5× Anti-Analyte Acceptor beads (50 μg/mL of AlphaLISA HiBlock Buffer) and incubated for 30 min at RT while shaking on an orbital plate shaker. To each well was added 10 μL of 5× Biotinylated Antibody Anti-analyte (5 nM in AlphaLISA HiBlock Buffer) and incubated on an orbital plate shaker for 60 min at RT or overnight at 4° C. To each well was added 25 μL of 2× SA-Donor beads (80 μg/mL in AlphaLISA HiBlock Buffer) and incubated for 30-45 min at RT in the dark while shaking on an orbital plate shaker. The plate was then read on a Perkin Elmer Envision (λex=680 nm, λem=[…]). The percent effect of the AlphaLISA signal at each compound concentration was calculated based on 30 uM cGAMP positive controls and 0.3% DMSO negative controls. The plot of percent effect versus the log of compound concentration was fit with a 4-parameter concentration response equation to calculate EC50 values. The test compounds were tested at concentrations 30000, 10000, 3333, 1111, 370.4, 123.4, 41.2, 13.7, 4.6, and 1.5 nM with 0.3% residual DMSO.
Compounds of the disclosure were evaluated for IFN-β secretion in THP1 cell culture as described above. The following table tabulates the biological data for these compounds as percent activation relative to 2′3′-cGAMP at the 30 μM concentration.

In the next assay the target is full-length HAQ STING (Homo sapiens (Human), UniProt Q86WV6, G230A/H232R/R293Q/R71H). In words: 3H-cGAMP filtration binding assay (HAQ STING). The note with it: competition with tritiated cGAMP, HAQ STING membrane. From the text:
The ability of compounds to bind STING is quantified by the ability to compete with tritiated cGAMP ligand for human STING receptor membrane using a radioactive filter-binding assay. The binding assay employs STING receptor obtained from Hi-Five cell membranes overexpressing full-length HAQ STING prepared in-house and tritiated cGAMP ligand also purified in-house.
The ability of compounds to bind STING is quantified by their ability to compete with tritiated cGAMP ligand for human STING receptor membrane using a radioactive filter-binding assay. The binding assay employs STING receptor obtained from Trichoplusia ni cell membranes (Tni; Expression Systems, cat #94-002F, www.exrpressionsystems.com) overexpressing full-length HAQ STING prepared in-house and tritiated cGAMP ligand also purified in-house.
The basic HAQ STING filtration assay protocol is as follows:
Compound and membrane then preincubated for 60 min at RT to allow compound binding to equilibrate. Following equilibration, 8 nM of [^3H] c-GAMP ligand was prepared by diluting into assay buffer, and 50 uL of this working stock was then manually added to each well of the assay plate. […] The filter plates were then dried at 55° C. for 30 min using a pressurized VWR oven before 30 uL of Ultima GoldF scintillate was added to each well. Tritium levels for each reaction well were then measured using a PerkinElmer TopCount plate reader.
After normalization to controls, the percent activity for each compound concentration was calculated by measuring the amount of remaining radioactivity. The plot of percent activity versus the log of compound concentration was fit with a 4-parameter dose response equation to calculate EC50 values.

The mark [1] stands for this setting: IFN-β secretion, THP1 cells, 5 h, 30 μM, read-out: % Effect at 30 μM relative to 2′3′-cGAMP.

Sequence of full-length HAQ STING (Q86WV6 other isoform, or with tags, fused parts or gaps, stated change not applied): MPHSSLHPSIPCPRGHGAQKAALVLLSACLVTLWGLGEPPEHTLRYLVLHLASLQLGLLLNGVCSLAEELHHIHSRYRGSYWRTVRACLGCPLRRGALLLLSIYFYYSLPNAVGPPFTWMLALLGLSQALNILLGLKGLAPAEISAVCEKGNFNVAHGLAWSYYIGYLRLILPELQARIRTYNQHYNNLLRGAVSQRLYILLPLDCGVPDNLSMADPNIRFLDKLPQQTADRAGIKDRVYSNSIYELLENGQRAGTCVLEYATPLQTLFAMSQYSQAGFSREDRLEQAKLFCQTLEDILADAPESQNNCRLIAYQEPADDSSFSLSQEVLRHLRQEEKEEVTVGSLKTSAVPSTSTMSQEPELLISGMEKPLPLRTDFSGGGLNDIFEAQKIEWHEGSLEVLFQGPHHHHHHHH

Take `[N-]=[N+]=N[C@H]1[C@H]2OP(O)(=S)OC[C@H]3O[C@@H](n4cnc5c(=O)[nH]c(N)nc54)[C@H](OP(O)(=S)OC[C@H]1O[C@H]2n1cnc2c(N)ncnc21)[C@@H]3F` (single isomer, unassigned) [Example 18]: the activation at 30 µM with THP1 cells (read-out: % Effect at 30 μM relative to 2′3′-cGAMP, IFN-β secretion, THP1 cells, 5 h, 30 μM) came out at 118%.

As for `Nc1nc2c(ncn2[C@@H]2O[C@@H]3COP(=O)(S)O[C@@H]4[C@H](O)[C@@H](COP(=O)(S)O[C@@H]2[C@@H]3O)O[C@H]4n2cnc3c(=O)[nH]c(N)nc32)c(=O)[nH]1` (single isomer, unassigned) [Example 25], in the assay on THP1 cells (setting [1]), the activation at 30 µM is 89%. In the case of `Nc1nc2c(ncn2[C@@H]2O[C@@H]3COP(=O)(S)OC4C(O)[C@@H](COP(=O)(S)OC2[C@@H]3O)O[C@H]4n2cnc3c(N)ncnc32)c(=O)[nH]1` (stereo in doubt) [Example 15, 2-amino-9-[(1R,6R,8R,9R,14R,16R,17R,18R)-16-(6-amino-9H-purin-9-yl)-17,18-dihydroxy-3,11-dioxido-3,11-disulfanyl-2,4,7,10,12,15-hexaoxa-3,11-diphosphatricyclo[12.2.1.1^6,9]octadec-8-yl]-1,9-dihydro-6H-purin-6-one], in the assay on THP1 cells (setting [1]), the activation at 30 µM came out at 132%. In the case of `Nc1nc2c(ncn2[C@@H]2O[C@@H]3COP(=O)(O)O[C@@H]4C[C@@H](COP(=O)(O)O[C@@H]2[C@@H]3O)O[C@H]4n2cnc3c(N)ncnc32)c(=O)[nH]1` [Example 1, 2-amino-9-[(1R,6R,8R,9R,14S,16R,18R)-16-(6-amino-9H-purin-9-yl)-3,11,18-trihydroxy-3,11-dioxido-2,4,7,10,12,15-hexaoxa-3,11-diphosphatricyclo[12.2.1.1^6,9]octadec-8-yl]-1,9-dihydro-6H-purin-6-one], the midpoint of the response at full-length HAQ STING, the EC50, lay at 19 nM. In the assay with THP1 cells (setting [1]), the activation at 30 µM turned out to be 121%.

Regarding `Nc1nc2c(ncn2[C@@H]2O[C@@H]3COP(=O)(O)O[C@@H]4[C@H](O)[C@@H](COP(=O)(O)O[C@@H]2C3)O[C@H]4n2cnc3c(N)ncnc32)c(=O)[nH]1` [Example 2, 2-amino-9-[(1R,6S,8R,9R,14R,16R,17R)-16-(6-amino-9H-purin-9-yl)-3,11,17-trihydroxy-3,11-dioxido-2,4,7,10,12,15-hexaoxa-3,11-diphosphatricyclo[12.2.1.1^6,9]octadec-8-yl]-1,9-dihydro-6H-purin-6-one], on full-length HAQ STING, the EC50 – broadly, the concentration giving half of the maximal effect – turned out to be 18.2 nM. Further, the activation at 30 µM in the assay on THP1 cells (setting [1]) is 123%. With `Nc1nc2c(ncn2[C@@H]2O[C@@H]3COP(=O)(O)O[C@@H]4[C@H](O)[C@@H](COP(=O)(O)O[C@@H]2[C@@H]3F)O[C@H]4n2cnc3c(N)ncnc32)c(=O)[nH]1` [Example 3, 2-amino-9-[(1R,6R,8R,9S,14R,16R,17R,18R)-16-(6-amino-9H-purin-9-yl)-18-fluoro-3,11,17-trihydroxy-3,11-dioxido-2,4,7,10,12,15-hexaoxa-3,11-diphosphatricyclo[12.2.1.1^6,9]octadec-8-yl]-1,9-dihydro-6H-purin-6-one], a half-maximal response on full-length HAQ STING (EC50) required 3.6 nM. Further, the activation at 30 µM in the assay on THP1 cells (setting [1]) stood at 150%.

In turn, `Nc1nc2c(ncn2[C@@H]2O[C@@H]3COP(=O)(O)O[C@@H]4[C@H](F)[C@@H](COP(=O)(O)O[C@@H]2[C@@H]3O)O[C@H]4n2cnc3c(N)ncnc32)c(=O)[nH]1` [Example 4, 2-amino-9-[(1S,6R,8R,9R,14R,16R,17R,18R)-16-(6-amino-9H-purin-9-yl)-17-fluoro-3,11,18-trihydroxy-3,11-dioxido-2,4,7,10,12,15-hexaoxa-3,11-diphosphatricyclo[12.2.1.1^6,9]octadec-8-yl]-1,9-dihydro-6H-purin-6-one] showed an EC50 at full-length HAQ STING of 1.8 nM. In addition, the activation at 30 µM in the assay on THP1 cells (setting [1]) was 104%. `[N-]=[N+]=N[C@H]1[C@H]2OP(=O)(O)OC[C@H]3O[C@@H](n4cnc5c(N)ncnc54)[C@H](OP(=O)(O)OC[C@H]1O[C@H]2n1cnc2c(=O)[nH]c(N)nc21)[C@@H]3O` [Example 5, 2-amino-9-[(1R,6S,8R,9R,14R,16R,17R,18R)-16-(6-amino-9H-purin-9-yl)-18-azido-3,11,17-trihydroxy-3,11-dioxido-2,4,7,10,12,15-hexaoxa-3,11-diphosphatricyclo[12.2.1.1^6,9]octadec-8-yl]-1,9-dihydro-6H-purin-6-one]: on full-length HAQ STING, the EC50 is less than 1 nM. Further, the activation at 30 µM in the assay on THP1 cells (setting [1]) turned out to be 145%. The like results for `C[C@H]1OP(=O)(O)O[C@@H]2[C@H](F)[C@@H](COP(=O)(O)O[C@@H]3[C@H](O)[C@@H]1O[C@H]3n1cnc3c(N)ncnc31)O[C@H]2n1cnc2c(=O)[nH]c(N)nc21` [Example 7, 2-amino-9-[(1R,6R,8R,9S,13R,14S,16R,17R,18R)-16-(6-amino-9H-purin-9-yl)-18-fluoro-3,11,17-trihydroxy-13-methyl-3,11-dioxido-2,4,7,10,12,15-hexaoxa-3,11-diphosphatricyclo[12.2.1.16,9]octadec-8-yl]-1,9-dihydro-6H-purin-6-one] were, in that order, 45.2 nM and 59%. Take `Nc1nc2c(ncn2[C@@H]2O[C@@H]3COP(=O)(O)O[C@@H]4[C@H](F)[C@@H](COP(=O)(O)O[C@@H]2C3)O[C@H]4n2cnc3c(N)ncnc32)c(=O)[nH]1` [Example 10, 2-amino-9-[(1S,6S,8R,9R,14R,16R,17R)-16-(6-amino-9H-purin-9-yl)-17-fluoro-3,11-dihydroxy-3,11-dioxido-2,4,7,10,12,15-hexaoxa-3,11-diphosphatricyclo[12.2.1.1^6,9]octadec-8-yl]-1,9-dihydro-6H-purin-6-one]: the activation at 30 µM in the assay on THP1 cells (setting [1]) is 87%. As for `Nc1nc2c(ncn2[C@@H]2O[C@@H]3COP(=O)(S)O[C@@H]4[C@H](O)[C@@H](COP(=O)(S)O[C@@H]2[C@@H]3O)O[C@H]4n2cnc3c(N)ncnc32)c(=O)[nH]1` (stereo partly drawn) [Example 14, 2-amino-9-[(1R,6R,8R,9R,14R,16R,17R,18R)-16-(6-amino-9H-purin-9-yl)-17,18-dihydroxy-3,11-dioxido-3,11-disulfanyl-2,4,7,10,12,15-hexaoxa-3,11-diphosphatricyclo[12.2.1.1^6,9]octadec-8-yl]-1,9-dihydro-6H-purin-6-one], the activation at 30 µM with THP1 cells (setting [1]) was determined as 150%. Turning to `Nc1nc2c(ncn2[C@@H]2O[C@@H]3COP(=O)(O)O[C@@H]4[C@H](O)[C@@H](COP(=O)(O)O[C@@H]2[C@@H]3N)O[C@H]4n2cnc3c(N)ncnc32)c(=O)[nH]1` [Example 32, 2-amino-9-[(1R,6S,8R,9R,14R,16R,17R,18R)-18-amino-16-(6-amino-9H-purin-9-yl)-3,11,17-trihydroxy-3,11-dioxido-2,4,7,10,12,15-hexaoxa-3,11-diphosphatricyclo[12.2.1.1^6,9]octadec-8-yl]-1,9-dihydro-6H-purin-6-one], at full-length HAQ STING, it took 1.9 nM to reach a half-maximal effect (EC50).
